One test addresses T1, AgOr1 (Anopheles gambiae, UniProt Q8WTE7).
T1 construct: expressed in transfected cells; host or cells: Transgenic Drosophila, ab3A olfactory receptor neuron lacking Or22a/Or22b (Δhalo), GAL4-UAS
T1 sequence (Q8WTE7 1-417): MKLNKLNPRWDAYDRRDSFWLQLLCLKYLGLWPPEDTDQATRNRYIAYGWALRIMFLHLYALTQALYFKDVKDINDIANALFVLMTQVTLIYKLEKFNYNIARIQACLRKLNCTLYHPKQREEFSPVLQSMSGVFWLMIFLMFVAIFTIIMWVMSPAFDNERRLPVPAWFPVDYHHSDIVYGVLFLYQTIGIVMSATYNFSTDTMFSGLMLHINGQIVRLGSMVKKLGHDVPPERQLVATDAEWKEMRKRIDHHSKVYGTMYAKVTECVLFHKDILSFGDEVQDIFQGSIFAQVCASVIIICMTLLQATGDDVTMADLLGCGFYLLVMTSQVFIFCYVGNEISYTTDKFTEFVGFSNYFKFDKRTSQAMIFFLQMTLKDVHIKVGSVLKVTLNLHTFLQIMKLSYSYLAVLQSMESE
T1 sequence (Q9VNB5 1-486 partner): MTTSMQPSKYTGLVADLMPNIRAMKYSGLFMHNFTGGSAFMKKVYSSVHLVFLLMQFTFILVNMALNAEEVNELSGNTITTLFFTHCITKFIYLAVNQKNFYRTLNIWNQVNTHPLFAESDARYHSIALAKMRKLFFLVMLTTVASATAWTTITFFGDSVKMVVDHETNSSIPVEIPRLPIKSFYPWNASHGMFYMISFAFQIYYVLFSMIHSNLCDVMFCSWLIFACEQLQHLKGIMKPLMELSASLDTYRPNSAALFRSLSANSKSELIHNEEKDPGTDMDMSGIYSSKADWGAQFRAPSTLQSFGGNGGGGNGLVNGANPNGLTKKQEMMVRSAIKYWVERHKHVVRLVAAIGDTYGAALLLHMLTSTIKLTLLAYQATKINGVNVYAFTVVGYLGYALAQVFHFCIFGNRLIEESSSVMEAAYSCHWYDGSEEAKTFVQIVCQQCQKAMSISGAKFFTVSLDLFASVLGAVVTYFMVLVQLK
The test is described as follows: Single-unit electrophysiology of Drosophila ab3A neuron (Δhalo) expressing AgOr1. It counts as in vivo. The settings on record: liquid odors diluted 10^−4, solid odors 0.2 mg/ml in paraffin oil, 0.5 s pulse, FIG. 1a. Here is the method: (§1) In summary, odorant receptors are introduced specifically into Δab3A using the GAL4/UAS system and Or22a-GAL4 is used to drive expression from a UAS-Or construct. The odorant response of the neuron (Δab3A:OrX) is assayed electrophysiologically.
(§2) To investigate the function of the A. gambiae odorant receptor genes AgOr1 and AgOr2 directly, these genes were expressed in the Drosophila olfactory receptor neuron that lacks odor response due to the deletion of its endogenous receptor genes, Or22a and Or22b using an Or22a promoter and the GAL4-UAS system.
(§3) AgOr1 and AgOr2 were expressed in the Δhalo background using the GAL4-UAS system. Specifically AgOr1 or AgOr2 was placed under the control of a UAS and expressed using the 22a-GAL4 driver so as to drive its expression in ab3A cells. […]
(§4) Action potentials of the ORNs in a sensillum were recorded by placing an electrode through the sensillum wall into contact with the lymph that bathes the dendrites. […] Recordings were analyzed offline in IGOR-Pro (WaveMetrics, Lake Oswego, Oreg.).
(§5) Odor stimuli were presented from Pasteur pipettes holding solutions of chemicals in paraffin oil on filter paper. […] Responses of the ab3A neurons were quantified by subtracting the number of impulses (i.e., spikes) in 500 ms of spontaneous activity from the number in the 500 ms after the onset of odor stimulation (FIG. 1).

Test [1] deals with Glossina morsitans morsitans. The settings on record: Vale et al., 1988; cited from earlier work.
In another test the target is T2, AgOr2 (Anopheles gambiae, UniProt Q8WTE6).
T2 construct: expressed in transfected cells; host or cells: Transgenic Drosophila, ab3A olfactory receptor neuron lacking Or22a/Or22b (Δhalo), GAL4-UAS
T2 sequence (Q8WTE6 1-378): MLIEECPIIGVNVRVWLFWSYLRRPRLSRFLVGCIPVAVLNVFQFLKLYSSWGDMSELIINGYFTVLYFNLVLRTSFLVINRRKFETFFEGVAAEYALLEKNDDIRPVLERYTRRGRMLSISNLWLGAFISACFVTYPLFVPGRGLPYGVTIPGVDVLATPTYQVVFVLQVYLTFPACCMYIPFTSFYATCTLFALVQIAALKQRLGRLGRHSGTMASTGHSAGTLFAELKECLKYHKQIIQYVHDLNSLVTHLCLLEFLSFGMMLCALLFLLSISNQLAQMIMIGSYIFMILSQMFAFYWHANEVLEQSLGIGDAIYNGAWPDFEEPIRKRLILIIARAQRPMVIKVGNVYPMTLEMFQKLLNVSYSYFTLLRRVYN
T2 sequence (Q9VNB5 1-486 partner): T1 sequence (Q9VNB5 1-486 partner)
The test is described as follows: Single-unit electrophysiology of Drosophila ab3A neuron (Δhalo) expressing AgOr2. The settings on record: liquid odors diluted 10^−4, solid odors 0.2 mg/ml in paraffin oil, 0.5 s pulse, FIG. 1b. It counts as in vivo. Here is the method:
as §1, §2, §3, §4, §5

In the case of `Cc1ccc(O)cc1` [4-methylphenol], the “odor response of mutant flies expressing AgOr1” value at AgOr1 is on record as “strong response”. Moreover, in test [1], the “effectiveness of traps for the tsetse fly” value is recorded as “increase the effectiveness of traps”. The “odor response conferred by AgOr2” value at AgOr2 is “not”.

The values are drawn from patent US20070157323A1, “In vivo odorant receptor systems and their uses” (priority 2003, published 2007).
